16 molecules from ChEMBL document CHEMBL3244033, “Potential antitumor agents. 21. Dialkanolamine dialkanesulfonic esters” (J Med Chem, 1977) can be followed below.

Broadly, the pKa is the negative logarithm of the acid dissociation constant. A higher pKa goes with a weaker acid or stronger base.

In one data set the test system is L1210. In words: Antileukemic activity against mouse L1210 cells allografted in ip dosed C3H/HeJ female X DBA2/J male F1 hybrid mouse assessed as maximal increase in host life span at LD10 administered as single dose 24 hrs after tumor implantation. It counts as functional.
The nature of data set [1]: Lipophilic-hydrophilic balance, Rm of the compound using mixture of glycerol, i-BuOH and 1-pentanol plus methanesulfonic acid as solvent system by acidic reversed-phase chromatography. It counts as physicochemical.
For the next data set, the system named is Mus musculus. In words: Acute toxicity in ip dosed C3H/HeJ female X DBA2/J male F1 hybrid mouse allografted with mouse L1210 cells assessed as mortality administered as single dose. The conditions noted are these: in vivo. It counts as organism-based.
The nature of data set [2]: Dissociation constant, pKa of the compound. Type of data set: physicochemical.

SMILES strings stand for the structures.

For `CCS(=O)(=O)OCCCCCCNCCOS(=O)(=O)CC.Cl`, the Activity in the data set with L1210 was 83%. Moreover, the Rm in data set [1] is reported as -0.19. The LD10 with Mus musculus came out at 285 mg/kg.

As for `CS(=O)(=O)OCCCNCCCOS(C)(=O)=O.Cl`, the Activity in the data set on L1210 is recorded as 84%. In addition, the Rm in data set [1] is given as -0.88. Moreover, the LD10 in the data set with Mus musculus was found to be 170 mg/kg. In data set [2], the pKa worked out at 8.77.

As for `CCS(=O)(=O)OCCNCCOS(=O)(=O)CC.Cl`, in the data set on L1210, the Activity is 26%. Also, in data set [1], the Rm is on record as -0.64. In addition, the LD10 in the data set with Mus musculus was found to be 35 mg/kg.

For `CCCCS(=O)(=O)OCCCNCCCOS(=O)(=O)CCCC.Cl`, the Rm in data set [1] worked out at 0.45.

Regarding `CS(=O)(=O)OCCNCCOS(C)(=O)=O.Cl`, the Activity in the data set on L1210 is reported as more than 25%. In data set [1], the Rm is -1.13. In addition, the LD10 in the data set with Mus musculus is 25 mg/kg.

Take `CCCCS(=O)(=O)OCCNCCOS(=O)(=O)CCCC.Cl`: the Activity in the data set on L1210 turned out to be 105%. Moreover, the Rm in data set [1] is on record as 0.37. The LD10 in the data set on Mus musculus was determined as 750 mg/kg.

For the molecule `CCCCS(=O)(=O)OCCNCCCCCCOS(=O)(=O)CCC.Cl`, in the data set on L1210, the Activity is listed as 35%. Moreover, the Rm in data set [1] was determined as 0.51. Besides, in the data set on Mus musculus, the LD10 came out at 200 mg/kg.

As for `CS(=O)(=O)OCCCCCCNCCCOS(C)(=O)=O.Cl`, the Activity with L1210 was found to be 107%. Besides, in data set [1], the Rm is -0.65. In addition, the LD10 with Mus musculus is 33 mg/kg.

In the case of `CCCCCS(=O)(=O)OCCNCCOS(=O)(=O)CCCCC.Cl`, in the data set with L1210, the Activity is recorded as 78%. Moreover, the Rm in data set [1] came to 0.76. Besides, the LD10 in the data set with Mus musculus was 520 mg/kg.

Turning to `CS(=O)(=O)OCCCCCCNCCOS(C)(=O)=O.Cl`, the Activity in the data set on L1210 is 91%. For the same molecule, in data set [1], the Rm is recorded as -0.71. Further, the LD10 with Mus musculus was found to be 185 mg/kg.

For `CCCS(=O)(=O)OCCNCCOS(=O)(=O)CCC.Cl`, the Activity in the data set on L1210 is listed as 57%. For the same molecule, in data set [1], the Rm is on record as -0.1. Further, the LD10 with Mus musculus is 210 mg/kg.

As for `CCCS(=O)(=O)OCCCNCCCOS(=O)(=O)CCC.Cl`, the Activity in the data set with L1210 is given as 75%. The Rm in data set [1] amounted to 0.09. Besides, the LD10 in the data set on Mus musculus is 285 mg/kg.

On to `CCCS(=O)(=O)OCCCCCCNCCCOS(=O)(=O)CCC.Cl`, for which the Activity in the data set on L1210 is given as 45%. In addition, in data set [1], the Rm is on record as 0.32. Further, the LD10 with Mus musculus was 137 mg/kg.

Regarding `CCS(=O)(=O)OCCCCCCNCCCOS(=O)(=O)CC.Cl`, the Activity with L1210 was 78%. Besides, in data set [1], the Rm is -0.05. Further, the LD10 in the data set with Mus musculus was determined as 61 mg/kg.

With `CCCS(=O)(=O)OCCCCCCNCCOS(=O)(=O)CCC.Cl`, the Activity in the data set with L1210 turned out to be 59%. In addition, the Rm in data set [1] amounted to 0.27. In the data set with Mus musculus, the LD10 came out at 225 mg/kg.

Take `CCS(=O)(=O)OCCCNCCCOS(=O)(=O)CC.Cl`: the Activity in the data set on L1210 is reported as 100%. Moreover, the Rm in data set [1] is given as -0.47. Besides, in the data set on Mus musculus, the LD10 worked out at 410 mg/kg.
